Reference: patent US5620416A, “Methods of using topical agents with systemically administered active agents” (priority 1995, dated 1997)

Experiment: Skin CDDP concentration after iontophoresis of a vasoactive agent with intravenous cisplatin infusion
Assay type: in vivo, female weanling Yorkshire pigs
Text: The ability of iontophoretically-delivered, vasoactive compounds to affect local cutaneous concentrations of a systemically delivered active agent was investigated in female weanling Yorkshire pigs. The effect of the timing of iontophoresis on tissue deposition of active agent was also investigated.
Study animals were assigned to receive iontophoresis either prior to, or after, attaining steady-state systemic concentrations of cisplatin (cisdiaminedichloroplatinum, CDDP). The iontophoresed agent was either a peripheral vasodilator (tolazoline), peripheral vasoconstrictor (norepinephrine), or saline.
Subjects were sedated with intramuscular ketamine/xylazine, and anesthesia was maintained with intravenous thiamylal. In each subject the inguinal area was divided into four quadrants, three of which received iontophoresis. One quadrant received iontophoresis of 0.4% tolazoline HCl (TOL); one received iontophoresis of 0.4% norepinephrine HCl (NOR); and one received iontophoresis of 50% saturated saline (SAL). The remaining quadrant served as a control (CON) and was not subjected to iontophoresis.
Iontophoretic current density was 0.2 mAmp/cm^2. Cisplatin (1.0 mg/ml) was infused via the saphenous vein at a rate of 0.03 mg/kg/min. […]

In the case of NC[C@H](O)c1ccc(O)c(O)c1 [Norepinephrine, norepinephrine], the “skin CDDP concentrations among skin samples (in words)” value (iontophoresis after reaching steady-state CDDP, control, tolazoline, norepinephrine and saline electrodes) is reported as “did not vary significantly” and the “skin CDDP concentration vs control skin (in words)” value (iontophoresis prior to steady-state CDDP, tolazoline p=0.01, norepinephrine p<0.001) is reported as “significantly lower”.
